Measurements: paper PMC10590056, “Design and synthesis of cabotegravir derivatives bearing 1,2,3-triazole and evaluation of anti-liver cancer activity” (Frontiers in Pharmacology, 2023)
Values joined by “and” are separate entries in the source; they are usually repeats but may differ in a detail not shown here. Equal entries are not always repeated. Where two headings read alike, the source gives them in different places.

Assays:
Format in all cases: cell-based
[1] = tested on: KYSE-30 cells; assay: MTT assay for cell proliferation, KYSE-30; set-up: key to Inhibitory rate: inhibition rate = 1 - mean A490 sample/mean A490 control (fraction)
In short: (§1)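 Proliferation read-out is MTT reduction (4 h) after 48 h treatment with KJ-5 or KJ-12 across 0, 1, 2, 4, 8, 16 and 32 μM. Cultures in 10% FBS DMEM, 37 °C, plated at 10^5 cells/mL; A490 of DMSO-dissolved formazan compared with untreated control.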

[2] = tested on: p-H2AX in HepG2 cells; assay: H2AX phosphorylation by immunofluorescence and Western blotting; settings: HepG2, 24 h
Protocol: HepG2 cells were plated in laser confocal dishes (Nest, China), followed by the addition of KJ-5 or KJ-12 for 24 h. Then, 4% paraformaldehyde was added to each laser confocal dish for 20 min after rinsing with PBS. Before the goat serum was added to block for 1 h, 0.5% Triton X-100 was used to penetrate HepG2 for 30 min. Subsequently, the cells were incubated with p-H2AX (Cell Signaling Technology, MA, United States) at a 1:800 dilution at 4°C overnight. The cells were rinsed with PBS and incubated with Alexa Fluor 488 (Proteintech, Wuhan, China) at a 1:1000 dilution in dark at room temperature for 1 h. DAPI was used to stain the cell nucleus for 5 min. Then, the cells were rinsed with PBS before observing the cells under a laser confocal microscope (Nikon, Tokyo, Japan).
After being pretreated with either KJ-5 or KJ-12 at concentrations of 2, 4, or 8 μM for 24 h, the cells were harvested and lysed using an ice-cold cell lysis buffer from Beyotime Biotechnology (Shanghai, China). The proteins were mixed with a loading buffer and denatured by heating at 95°C–100°C for 5–10 min. Equal amounts of protein were loaded onto a 10% SDS-PAGE gel along with a molecular weight marker and separated by electrophoresis for 2 h. The separated proteins were transferred onto a PVDF membrane, which was blocked with 5% non-fat milk for non-specific binding sites on the membrane. […]

[3] = tested on: Bcl-2, Bax, cleaved caspase-9, cleaved caspase-3, cleaved PARP in HepG2 cells; assay: Western blot of mitochondrial apoptotic proteins
Protocol: After being pretreated with either KJ-5 or KJ-12 at concentrations of 2, 4, or 8 μM for 24 h, the cells were harvested and lysed using an ice-cold cell lysis buffer from Beyotime Biotechnology (Shanghai, China). The proteins were mixed with a loading buffer and denatured by heating at 95°C–100°C for 5–10 min. Equal amounts of protein were loaded onto a 10% SDS-PAGE gel along with a molecular weight marker and separated by electrophoresis for 2 h. The separated proteins were transferred onto a PVDF membrane, which was blocked with 5% non-fat milk for non-specific binding sites on the membrane. Then, the membrane was incubated with primary antibodies at 4°C overnight. Following incubation with the primary antibody, the membrane was incubated with HRP-conjugated goat anti-rabbit or goat anti-mouse IgG at 37°C for 1 h. Protein bands were visualized on the PVDF membrane using an ECL hypersensitive chemiluminescence solution and a Bio-Rad gel imaging and analysis system.

[4] = tested on: MCF-7 cells; assay: MTT assay for cell proliferation, MCF-7; set-up: key to Inhibitory rate / Inhibition rate: inhibition rate = 1 - mean A490 sample/mean A490 control (fraction)
In short: as §1

[5] = tested on: normal hepatic cells L02; assay: MTT inhibition rate in normal hepatic cells L02; settings: for Average OD / Inhibitory rate / ODtreated/ODcontrol: L02 cells, 3 repeat experiments; for Average OD: average of 5 wells; for Inhibitory rate / ODtreated/ODcontrol: fraction
[6] = MCF-7, fraction, per experiment

Q: How did the IC50 ([1]; Homo sapiens, KYSE-30, 48 h, MTT, read-out: IC50 KYSE-30) turn out when `COc1c2n(cc(C(=O)Nc3cccc(-c4cn(-c5c(C)cc(C)cc5C)nn4)c3)c1=O)C[C@H]1OC[C@H](C)N1C2=O` [KJ-12] was run?
A: 11.7 ± 0.21 µM

Q: What about the IC50 ([1]; Homo sapiens, KYSE-30, KYSE-30, one of three experiments, unit inferred, read-out: IC50, single experiment, KYSE-30) of the same compound?
A: 11.8 µM

Q: What about the inhibition at 16 µM ([1]; Homo sapiens, preliminary screening, KYSE-30, 16 μM, 48 h, mean±SD, unit inferred, read-out: Inhibition rate (16μM), 48 h, KYSE-30) of the same compound?
A: 56.1 ± 4.59%

Q: What about the ODtreated/ODcontrol ([1]; KYSE-30, first of three experiments) of the same compound?
A: 0.4595

Q: What about the Inhibitory rate ([1]; KYSE-30, given as fraction, first of three experiments) of the same compound?
A: 0.5405

Q: And the Inhibitory rate ([1]; KYSE-30, given as fraction, second of three experiments)?
A: 0.5295

Q: What about the Inhibitory rate ([1]; KYSE-30, given as fraction, third of three experiments) of the same compound?
A: 0.614

Q: And the Inhibitory rate ([1]; KYSE-30, group 1 (concentration), fraction, single experiments)?
A: 0.1337 and 0.126 and 0.1387

Q: What about the ODtreated/ODcontrol ([1]; KYSE-30, group 1 (concentration), single experiments) of the same compound?
A: 0.8663 and 0.874 and 0.8613

Q: And the Inhibitory rate ([1]; KYSE-30, group 2 (concentration), fraction, single experiments)?
A: 0.1741 and 0.1797 and 0.2087

Q: And the ODtreated/ODcontrol ([1]; KYSE-30, group 2 (concentration), single experiments)?
A: 0.8259 and 0.8203 and 0.7913

Q: What about the Inhibitory rate ([1]; KYSE-30, group 4 (concentration), fraction, single experiments) of the same compound?
A: 0.2947 and 0.287 and 0.2904

Q: And the ODtreated/ODcontrol ([1]; KYSE-30, group 4 (concentration), single experiments)?
A: 0.7053 and 0.713 and 0.7096

Q: What about the Inhibitory rate ([1]; KYSE-30, group 8 (concentration), fraction, single experiments) of the same compound?
A: 0.4545 and 0.4401 and 0.4294

Q: What about the ODtreated/ODcontrol ([1]; KYSE-30, group 8 (concentration), single experiments) of the same compound?
A: 0.5455 and 0.5599 and 0.5706

Q: And the Inhibitory rate ([1]; KYSE-30, group 16 (concentration), fraction, single experiments)?
A: 0.517 and 0.5136 and 0.5274

Q: What about the ODtreated/ODcontrol ([1]; KYSE-30, group 16 (concentration), single experiments) of the same compound?
A: 0.483 and 0.4864 and 0.4726

Q: What about the Inhibitory rate ([1]; KYSE-30, group 32 (concentration), fraction, single experiments) of the same compound?
A: 0.7126 and 0.7246 and 0.731

Q: And the ODtreated/ODcontrol ([1]; KYSE-30, group 32 (concentration), single experiments)?
A: 0.2874 and 0.2754 and 0.269

Q: And the IC50 ([1]; KYSE-30, one of three experiments, unit inferred, read-out: IC50, single experiment, KYSE-30)?
A: 11.9 µM and 11.5 µM

Q: And the ODtreated/ODcontrol ([1]; KYSE-30, second of three experiments)?
A: 0.4705

Q: What about the ODtreated/ODcontrol ([1]; KYSE-30, third of three experiments) of the same compound?
A: 0.386

Q: And the “Expression of p-H2AX (DNA damage marker)” value [2]?
A: increased the expression of p-H2AX

Q: What about the Bax levels ([3]; HepG2, 2, 4 or 8 μM, 24 h) of the same compound?
A: increased

Q: And the Bax/Bcl-2 ratio ([3]; HepG2, 2, 4 or 8 μM, 24 h)?
A: increased

Q: What about the Bcl-2 protein levels ([3]; HepG2, 2, 4 or 8 μM, 24 h) of the same compound?
A: decreased

Q: And the “Expression of cleaved PARP” value ([3]; HepG2, vs control)?
A: significant increase

Q: And the “Expression of cleaved caspase-3” value ([3]; HepG2, vs control)?
A: significant increase

Q: And the “Expression of cleaved caspase-9” value ([3]; HepG2, vs control)?
A: significant increase

Q: What about the IC50 ([4]; Homo sapiens, MCF7, 48 h, MCF-7, 48 h, MTT, read-out: IC50 MCF-7) of the same compound?
A: 8.55 ± 0.6 µM

Q: What about the IC50 ([4]; Homo sapiens, MCF7, MCF-7, one of three experiments, unit inferred, read-out: IC50, single experiment, MCF-7) of the same compound?
A: 9.23 µM

Q: And the inhibition at 16 µM ([4]; Homo sapiens, MCF7, preliminary screening, MCF-7, 16 μM, 48 h, mean±SD, unit inferred, read-out: Inhibition rate (16μM), 48 h, MCF-7)?
A: 54.7 ± 1.79%

Q: And the Inhibitory rate ([4]; MCF-7, group 1 (concentration), fraction, single experiments)?
A: 0.2053 and 0.2025 and 0.1943

Q: And the ODtreated/ODcontrol ([4]; MCF-7, group 1 (concentration), single experiments)?
A: 0.7947 and 0.7975 and 0.8057

Q: What about the Inhibitory rate ([4]; MCF-7, group 2 (concentration), fraction, single experiments) of the same compound?
A: 0.2385 and 0.2481 and 0.2879

Q: And the ODtreated/ODcontrol ([4]; MCF-7, group 2 (concentration), single experiments)?
A: 0.7615 and 0.7519 and 0.7121

Q: And the Inhibitory rate ([4]; MCF-7, group 4 (concentration), fraction, single experiments)?
A: 0.3137 and 0.3313 and 0.3802

Q: And the ODtreated/ODcontrol ([4]; MCF-7, group 4 (concentration), single experiments)?
A: 0.6863 and 0.6687 and 0.6198

Q: And the Inhibitory rate ([4]; MCF-7, group 8 (concentration), fraction, single experiments)?
A: 0.4877 and 0.4713 and 0.472

Q: And the ODtreated/ODcontrol ([4]; MCF-7, group 8 (concentration), single experiments)?
A: 0.5123 and 0.5287 and 0.528

Q: And the Inhibitory rate ([4]; MCF-7, group 16 (concentration), fraction, single experiments)?
A: 0.5949 and 0.6244 and 0.5636

Q: What about the ODtreated/ODcontrol ([4]; MCF-7, group 16 (concentration), single experiments) of the same compound?
A: 0.4051 and 0.3756 and 0.4364

Q: What about the Inhibitory rate ([4]; MCF-7, group 32 (concentration), fraction, single experiments) of the same compound?
A: 0.7215 and 0.7706 and 0.7971

Q: What about the ODtreated/ODcontrol ([4]; MCF-7, group 32 (concentration), single experiments) of the same compound?
A: 0.2785 and 0.2294 and 0.2029

Q: And the IC50 ([4]; MCF-7, one of three experiments, unit inferred, read-out: IC50, single experiment, MCF-7)?
A: 8.35 µM and 8.08 µM

Q: What about the Inhibitory rate [4, 6] of the same compound?
A: 0.5407

Q: What about the ODtreated/ODcontrol [4, 6] of the same compound?
A: 0.4593

Q: And the Inhibitory rate ([4]; given as fraction, second of three experiments)?
A: 0.5326

Q: What about the Inhibition rate ([4]; given as fraction, third of three experiments) of the same compound?
A: 0.5669

Q: What about the ODtreated/ODcontrol ([4]; second of three experiments) of the same compound?
A: 0.4674

Q: And the ODtreated/ODcontrol ([4]; third of three experiments)?
A: 0.4331

Q: What about the inhibition at 1 µM ([5]; Homo sapiens, L02, 48 h, L02, 1 μM, 48 h) of the same compound?
A: 10.8 ± 0.95%

Q: And the inhibition at 2 µM ([5]; Homo sapiens, L02, 48 h, L02, 2 μM, 48 h)?
A: 13.6 ± 0.75%

Q: What about the inhibition at 4 µM ([5]; Homo sapiens, L02, 48 h, L02, 4 μM, 48 h) of the same compound?
A: < 20%

Q: And the inhibition at 8 µM ([5]; Homo sapiens, L02, 48 h, L02, 8 μM, 48 h)?
A: 22.3 ± 2.93%

Q: What about the inhibition at 16 µM ([5]; Homo sapiens, L02, 48 h, L02, 16 μM, 48 h) of the same compound?
A: 30.5 ± 1.2%

Q: And the “Average OD” value ([5]; Group 1)?
A: 1.123 and 1.0994 and 0.8196

Q: What about the Inhibitory rate ([5]; Group 1) of the same compound?
A: 0.1145 and 0.1117 and 0.09678

Q: What about the ODtreated/ODcontrol ([5]; Group 1) of the same compound?
A: 0.8855 and 0.8883 and 0.9032

Q: And the “Average OD” value ([5]; Group 2)?
A: 1.1022 and 1.0518 and 0.793

Q: And the Inhibitory rate ([5]; Group 2)?
A: 0.1433 and 0.1281 and 0.1359

Q: And the ODtreated/ODcontrol ([5]; Group 2)?
A: 0.8567 and 0.8719 and 0.8641

Q: And the “Average OD” value ([5]; Group 4)?
A: 1.0412 and 1.0106 and 0.783

Q: What about the Inhibitory rate ([5]; Group 4) of the same compound?
A: 0.1541 and 0.1764 and 0.1697

Q: And the ODtreated/ODcontrol ([5]; Group 4)?
A: 0.8459 and 0.8236 and 0.8303

Q: What about the “Average OD” value ([5]; Group 8) of the same compound?
A: 1.0104 and 0.9056 and 0.7302

Q: And the Inhibitory rate ([5]; Group 8)?
A: 0.2111 and 0.2008 and 0.256

Q: And the ODtreated/ODcontrol ([5]; Group 8)?
A: 0.7889 and 0.7992 and 0.744

Q: And the “Average OD” value ([5]; Group 16)?
A: 0.8912 and 0.8512 and 0.6312

Q: What about the Inhibitory rate ([5]; Group 16) of the same compound?
A: 0.3181 and 0.295 and 0.3007

Q: What about the ODtreated/ODcontrol ([5]; Group 16) of the same compound?
A: 0.6819 and 0.705 and 0.6993

Q: What about the “Average OD” value ([5]; Group 32) of the same compound?
A: 0.7446 and 0.6962 and 0.5126

Q: What about the Inhibitory rate ([5]; Group 32) of the same compound?
A: 0.4462 and 0.411 and 0.428

Q: What about the ODtreated/ODcontrol ([5]; Group 32) of the same compound?
A: 0.5538 and 0.589 and 0.572
